Reference: US20260207591A1, “CRYSTAL FORM OF FLUORINE-SUBSTITUTED INDAZOLE COMPOUND AND USE THEREOF” (SUNSHINE LAKE PHARMA CO., LTD., priority 2022, published 2026)

What was measured:
[1] = Crystal form conversion in solvents; assay type: physicochemical; conditions: solvents such as ethanol
Solubility (HPLC) = assay type: physicochemical
Method: The solubility of the present invention was determined using an Agilent 1200 High Performance Liquid Chromatograph DAD/VWD detector with an Agilent XDB-C18 model (4.6×50 mm, 5 μm). Detection wavelength of 266 nm, flow rate of 1.0 mL/min, the column temperature of 35° C., mobile phase A: acetonitrile—0.01 M ammonium acetate=10:90 (V:V) analysis methods: acetonitrile-mobile phase A=70:30 (V:V), running time: 10 minutes.

[2] = Light-exposure test (stability study); assay type: physicochemical; conditions: visible 4500 lx±500 lx and UV, 30 days; for Purity (%): HPLC
Source text: (§1) Expose the sample to visible light (4500 lx±500 lx) and UV light (energy ≥0.7 W·h/m^2) for 30 days. Collect samples at 0, 5, 10, 15, and 30 days for analysis according to the key stability test items. Observe any color changes and determine purity by HPLC.

[3] = Hygroscopicity test by dynamic vapor sorption (DVS); assay type: physicochemical; conditions: for Weight Gain at 60% RH (%) / Weight Gain at 80% RH (%) / Weight Gain at 95% RH (%): DVS, 25° C.; for resistance to deliquescence: high-humidity conditions
Method: The hygroscopicity of the present invention was determined using a DVS INT-Std dynamic vapor and gas sorption analyzer from Surface Measurement Systems Ltd. (UK) with the following parameters: humidity test range: 0%-95%, gas flow: 200 mL/min, temperature: 25° C., test points: one measurement point every 5% humidity increase.
An appropriate amount of the test sample was taken, and its hygroscopicity was measured using a dynamic vapor sorption (DVS) instrument. The classification criteria for hygroscopicity characteristics and moisture absorption weight gain (as per Appendix 9103 “Guidelines for Hygroscopicity Testing of Drugs” from the Chinese Pharmacopoeia 2020 Edition, test conditions: 25° C.±1° C., 80%±2% relative humidity (RH)) are described in Table 2 below: […]

[4] = High-humidity test (stability study); assay type: physicochemical; conditions: for Purity (%): HPLC
Method: (§2) Place an appropriate amount of the test sample from one batch in a flat weighing bottle, spreading it into a thin layer ≤5 mm thick. Store at 25° C. and 90%±5% relative humidity (RH) for 30 days. Collect samples at 0, 5, 10, and 30 days for analysis according to the key stability test items. Observe any color changes and determine purity by HPLC.

[5] = Stability studies, overall conclusion; assay type: physicochemical
Method: Example 5 Stability Studies
(§3) Place an appropriate amount of the test sample in a flat weighing bottle, spreading it into a thin layer ≤5 mm thick. Store at 60° C.±2° C. for 30 days. Collect samples at 0, 5, 10, and 30 days for analysis according to the key stability test items. Observe any color changes and determine purity by HPLC.
as §2, §1

[6] = Pharmacokinetics test in Beagle dogs, oral capsules; assay type: in vivo; conditions: dog, plasma, male Beagle dogs, 5 mg/kg
Method: Male Beagle dogs of 8-12 kg were divided into 3 groups, 3 dogs in each group, and capsules containing test samples were orally administered at a dose of 5 mg/kg, and blood was collected at time points of 0.25, 0.5, 1.0, 2.0, 4.0, 6.0, 8.0 and 24 h. Standard curve was plotted based on concentrations of the samples in a suitable range, the concentration of the test sample in the plasma sample was measured and quantified by AB SCIEX API4000-type LC-MS/MS at MRM mode. Pharmacokinetic parameters were calculated according to drug concentration-time curve using a noncompartmental method by WinNonLin 6.3 software.

[7] = High-temperature test (stability study); assay type: physicochemical
Method: (1) High-Temperature Test:
as §3

[8] = 0 day (start of stability tests)
[9] = High-Humidity, 25° C., 90%±5% RH, 30 days

Compound	crystal form conversion in solvents [1]	solubility (in words) (Solubility (HPLC))	Outward [2]	Purity (%) [2] [%]	Weight Gain at 60% RH (%) [3] [%]	Weight Gain at 80% RH (%) [3] [%]	Weight Gain at 95% RH (%) [3] [%]	resistance to deliquescence [3]	Outward [4, 8]	Purity (%) [4, 8] [%]	Outward [4, 9]	Purity (%) [4, 9] [%]	crystal structure stability (polymorphic transition) [5]	stability under various storage conditions [5]	AUC(0-t) [6] [ng·h/mL]	Cmax [6] [ng/mL]	Tmax [6] [h]	polymorphic transformation under high-temperature conditions [7]
COC(=O)Nc1c(N)nc(-c2nn(Cc3ccccc3F)c3c(F)cccc23)nc1N [Crystal Form I, methyl (4,6-diamino-2-(7-fluoro-1-(2-fluorobenzyl)-1H-indazol-3-yl)pyrimidin-5-yl)carbamate]	exhibit crystal form conversion																	
COC(=O)Nc1c(N)nc(-c2nn(Cc3ccccc3F)c3c(F)cccc23)nc1N [Crystal Form XI, methyl (4,6-diamino-2-(7-fluoro-1-(2-fluorobenzyl)-1H-indazol-3-yl)pyrimidin-5-yl)carbamate]		good solubility	Off-white	99.75	0.15	0.20	0.26	highly resistant to deliquescence	Off-white	99.77	Off-white	99.80	less prone to polymorphic transition	excellent stability	12100	1140	10	
COC(=O)Nc1c(N)nc(-c2nn(Cc3ccccc3F)c3c(F)cccc23)nc1N [Crystal Form V, methyl (4,6-diamino-2-(7-fluoro-1-(2-fluorobenzyl)-1H-indazol-3-yl)pyrimidin-5-yl)carbamate]	exhibit crystal form conversion		Pale yellow	99.36					Off-white	99.52	Off-white	99.51						undergoes polymorphic transformation
COC(=O)Nc1c(N)nc(-c2nn(Cc3ccccc3F)c3c(F)cccc23)nc1N [Crystal Form III, methyl (4,6-diamino-2-(7-fluoro-1-(2-fluorobenzyl)-1H-indazol-3-yl)pyrimidin-5-yl)carbamate]			Pale yellow	99.75	0.09	0.14	0.25	highly resistant to deliquescence	Pale yellow	99.76	Pale yellow	99.78		excellent stability				
